Experimental data from PubChem BioAssay (NCI).
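A five-concentration, 48-hour dose response in 96-well plates underlies each endpoint, interpolated linearly between surrounding concentrations. TGI denotes the concentration required for complete inhibition of growth.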

Assays:
Test in all cases: inhibition of tumour cell growth, NCI panel, 48 h
786-0 renal = test system: 786-0 renal
A498 renal = test system: A498 renal
A549 NSCLC = test system: A549 NSCLC
ACHN renal = test system: ACHN renal
BT-549 breast = test system: BT-549 breast
CAKI-1 renal = test system: CAKI-1 renal
CCRF-CEM leukemia = test system: CCRF-CEM leukemia
COLO 205 colon = test system: COLO 205 colon
DU-145 prostate = test system: DU-145 prostate
EKVX NSCLC = test system: EKVX NSCLC
HCC-2998 colon = test system: HCC-2998 colon
HCT-116 colon = test system: HCT-116 colon
HCT-15 colon = test system: HCT-15 colon
HL-60(TB) leukemia = test system: HL-60(TB) leukemia
HOP-62 NSCLC = test system: HOP-62 NSCLC
HOP-92 NSCLC = test system: HOP-92 NSCLC
HS 578T breast = test system: HS 578T breast
HT29 colon = test system: HT29 colon
IGROV1 ovarian = test system: IGROV1 ovarian
K-562 leukemia = test system: K-562 leukemia
KM12 colon = test system: KM12 colon
LOX IMVI melanoma = test system: LOX IMVI melanoma
M14 melanoma = test system: M14 melanoma
MALME-3M melanoma = test system: MALME-3M melanoma
MCF7 breast = test system: MCF7 breast
MDA-MB-231 breast = test system: MDA-MB-231 breast
MDA-MB-435 = test system: MDA-MB-435
MDA-N = test system: MDA-N
MOLT-4 leukemia = test system: MOLT-4 leukemia
NCI-H226 lung = test system: NCI-H226 lung
NCI-H23 lung = test system: NCI-H23 lung
NCI-H460 lung = test system: NCI-H460 lung
NCI-H522 lung = test system: NCI-H522 lung
NCI/ADR-RES ovarian = test system: NCI/ADR-RES ovarian
OVCAR-3 ovarian = test system: OVCAR-3 ovarian
OVCAR-4 ovarian = test system: OVCAR-4 ovarian
OVCAR-5 ovarian = test system: OVCAR-5 ovarian
OVCAR-8 ovarian = test system: OVCAR-8 ovarian
PC-3 prostate = test system: PC-3 prostate
RPMI-8226 leukemia = test system: RPMI-8226 leukemia
RXF 393 renal = test system: RXF 393 renal
SF-268 CNS = test system: SF-268 CNS
SF-295 CNS = test system: SF-295 CNS
SF-539 CNS = test system: SF-539 CNS
SK-MEL-2 melanoma = test system: SK-MEL-2 melanoma
SK-MEL-28 melanoma = test system: SK-MEL-28 melanoma
SK-MEL-5 melanoma = test system: SK-MEL-5 melanoma
SK-OV-3 ovarian = test system: SK-OV-3 ovarian
SN12C renal = test system: SN12C renal
SNB-19 CNS = test system: SNB-19 CNS
SNB-75 CNS = test system: SNB-75 CNS
SR leukemia = test system: SR leukemia
SW-620 colon = test system: SW-620 colon
T-47D breast = test system: T-47D breast
TK-10 renal = test system: TK-10 renal
U251 CNS = test system: U251 CNS
UACC-257 melanoma = test system: UACC-257 melanoma
UACC-62 melanoma = test system: UACC-62 melanoma
UO-31 renal = test system: UO-31 renal

Measured: TGI

CC(C)NC(=O)OCc1c(COC(=O)NC(C)C)c(-c2ccc[n+](COC(=O)C(C)C)c2)n2c1CCC2
> 59.4 µM: HL-60(TB) leukemia
> 79.3 µM: MOLT-4 leukemia
> 89.6 µM: RXF 393 renal
> 94.6 µM: HOP-92 NSCLC
> 91.2 µM: CCRF-CEM leukemia
97.4 µM: SR leukemia
> 83.3 µM: SF-539 CNS
61.2 µM: A498 renal
74.2 µM: CAKI-1 renal
91.4 µM: NCI-H522 lung
> 100 µM: all other assays above

COC(=O)CN1Cc2cc(C)cc(c2O)CN(CC(=O)OC)Cc2cc(C)cc(c2O)CN(CC(=O)OC)Cc2cc(C)cc(c2O)C1
> 61.3 µM: NCI-H226 lung
> 77.2 µM: MDA-MB-231 breast
> 68.5 µM: T-47D breast
> 86.6 µM: M14 melanoma
> 75 µM: RXF 393 renal
> 74.7 µM: SNB-75 CNS
> 84.3 µM: A498 renal
> 96.3 µM: MCF7 breast
> 77.1 µM: SK-MEL-2 melanoma
> 73.7 µM: PC-3 prostate
> 100 µM: all other assays above
